In US5688789A, “PCP receptor ligands and the use thereof” (State of Oregon, acting by and through the Oregon State …, priority 1995, dated 1997):

Key:
rat hippocampal cells = assay: In vitro neurotoxicity assay: protection against glutamate, Trypan Blue survival count (Example 7); type: cell-based; details: 5 uM, glutamate 0-1000 uM, 1 uM glycine
Experimental: In the cytotoxicity studies, cultured mammalian neurons expressing EAA receptors are exposed in vitro to glutamate and the particular compound under investigation. The survival percentage of cells indicates the ability of the compound to protect against glutamate-induced neuronal death.
Dissociated rat hippocampal cultures were prepared using a modification of the method of Huettner and Baughman [Huettner, J. E. and Baugham, R. W., J. Neurosci. 6:3044-3060 (1986)]. The cortices were removed from 1-3 day post-natal rats (Sprague-Dawley) that had been anesthetized with chloral hydrate, and the hippocampi were dissected out and placed in Cl^- free dissociation medium supplemented with 1 mM kynurenic acid and 10 mM MgSO4 (Choi, D. W., J. Neurosci. 7:369-379 (1987)). The hippocampi were washed in the dissociation medium, then incubated for 2×20 minutes at 37° C. in dissociation medium containing 10 units/ml of Papain (Worthington). After the enzyme treatment, the tissue was incubated for three 5-minute periods at 37° C. with 10 mg/ml trypsin inhibitor (Sigma type II-0).
The cells were dissociated by trituration in growth medium and plated as 0.15 ml droplets of cell suspension onto the center of 35 mm Primaria (Falcon) dishes that had been stamped with a labeled 26×26 grid of approximately 0.64 cm^2 total area using a Mecanex BB form (WPI, New Haven, Conn.) and coated with poly-D-lysine and laminin (Collaborative Research). The cell density was between 2.5 and 4.0×10^5 cells per dish. The growth medium was Eagles minimum essential media (MEM, Earle's salts) supplemented with 5% fetal bovine serum (CCL), 5% defined supplemented calf serum (HyClone), 50 mM glucose, 50 units/ml penicillin/streptomycin and MITO+serum extender (Collaborative Research). The cells were maintained at 37° C. in a humidified 4.5% CO2 atmosphere. […]
Before treatment, sister cultures were examined under phase-contrast microscopy to ensure that the cultures were of a similar density. […] The cultures were washed three times and the surviving cells counted in the grid area using phase contrast microscopy. […]

PCP receptor [1] = assay: PCP receptor affinity of IDDC analogs vs. [3H]MK-801 in rat brain membrane (Example 10, Table 2); details: read-out: PCP Receptor Affinity IC50 in Rat Brain Membrane vs. [3H]MK-801, MEAN
PCP receptor [2] = assay: PCP receptor binding against 3H-MK-801 (Example 5, Table 1); details: vs. 3H-MK-801; ± sem (n)
Experimental: The PCP receptor binding properties of various compounds of the invention against ^3 H-5-methyl-10,11-dihydro-5H-dibenzo[a,d]cycloheptene-5,10-imine (^3 H-MK-801) were determined.

[3] = tested on: NMDA receptor-ion channel complex; assay: Whole-cell patch clamp: block of NMDA-induced currents on cultured rat hippocampal neurons (Example 6); type: cell-based; details: rat hippocampal neurons, compared with MK-801
Experimental: In the electrophysiological studies the compounds are evaluated with respect to their ability to block the ion channel of the NMDA receptor channel complex and thereby inhibit Ca^2+ and Na^+ ion flow into the nerve cell. Initially, the ion channels are opened by activating the NMDA receptor. Ion flow is determined by measuring the passage of electrical current, i.e., a use-dependent decrease in electrical current indicates blocking of the ion channel due to binding of a ligand at a site within the channel.
Hippocampal neurons were obtained from the CA1 region of the hippocampus from 1-3 day-old-newborn rats (Long-Evans). Small blocks of tissue ([…]1mm^3) were incubated in papain (20 units ml^-1; Worthington-Cooper) for 30 minutes. The tissue was dissociated into a single cell suspension by trituration with a fire-polished Pasteur pipette in complete growth medium (Earle's MEM, 20 mM glucose, 50 units/ml penicillin/streptomycin, 5% heat-inactivated fetal calf serum, Serum Extender from Collaborative Research) containing 2.5 mg/ml bovine serum albumin and 2.5 mg/ml trypsin inhibitor (Sigma). The cells were plated onto glass coverslips coated with collagen/poly-D-lysine. Cultures were fed every 3 days by replacing haft the volume of medium. Arabinosylcytosine (5×10^-6 M) was added to the cultures for 1 or 2 days during the first week after plating to suppress the proliferation of non-neuronal cells.
All electrophysiology experiments were performed with the whole-cell mode of patch clamp recording [Hamill, O. D., Marty, A., Neher, E., Sakman, B., and Sigworth, F. J., Pflugers Arch. 391:85-100 (1981)] from neurons grown for 1-3 weeks in culture. Agonists and agonist/antagonist combinations were applied by a U-tube mol (Fenwick et al, J. Physiol. 331:577-597 (1982)) to neurons in whole-cell experiments. The external solution contained (in mM) NaCl 140, KCl 3.5, CaCl2 1, glucose 5, picrotoxinin 0.02, tetrodotoxin (TTX) 5×10^-4, and N-2-hydroxyethyl-piperazine-N'-2-ethanesulfonic acid (HEPES) 10. The pH of this solution was adjusted to 7.4 with NaOH. The internal (patch electrode) solution contained (mM) Cs-methanesulfonate 120, CsCl 10, ethyleneglycol-bis-(β-aminoethylether)-N,N,N',N'-tetraacetic acid (EGTA) 10, HEPES 10 (pH adjusted to 7.0 with CsOH). Membrane current was filtered at 4000 Hz (-3dB; 8-pole Bessel) and recorded on magnetic tape for later analysis. Experiments were performed at room temperature (20°-25° C.). [Sources of chemicals: N-methyl-D-aspartate, Cambridge Research Biochemicals; pirotoxinin, Sigma Chemical Company; salts for recording solutions, Aldrich (Gold Label) or Alfa (Puratronic). [^3 H]Kainate and [3H]CPP and [^3 H]AMPA were purchased from Dupont/NEN (Boston, Mass.)].
Repetitive applications (every 30 s) to the same cell produced currents which varied less than 5% over a period of at least 30 minutes.

[4] = tested on: lesions caused by NMDA injection; assay: In vivo neurotoxicity assay: protection against lesions caused by cerebral NMDA injection (Example 8); details: about 0.30 to 60 μMol/kg, intraperitoneal, 15 minutes following cerebral NMDA injection
Excerpt: In the in vivo neurotoxicity studies, the experimental model of McDonald, D. W., et al., (In: Sigma and Phencyclidine-like Compounds as Molecular Probes in Biology, Ed. Domino, E. F., and Kamenka, J.-M., pp. 697-707 (1988), NPP Books, Ann Arbor, Mich.) may be employed. In this model, NMDA injection into one cerebral hemisphere causes injury which resembles the lesion produced by hypoxia-ischemia. The ability of compounds to limit the NMDA-induced lesion is a measure of their neuroprotective properties; since the compounds may be administered intraperitoneally, the model can also provide information about a compound's ability to cross the blood-brain barrier.
The experimental model of McDonald, J. W., et al., supra, was employed with the single alteration in protocol of an intraperitoneal injection of the test compound 15 minutes following, rather than preceding, the cerebral NMDA injection.

Structure (SMILES): c1ccc2c(c1)CC1NCC2c2ccccc21 (racemic) [(±)-IDDC, (±) 10,5-(iminomethano)-10,11-dihydro-5H-dibenzo[a,d]cycloheptene]
- cell survival compared to control (rat hippocampal cells): enhanced cell survival when compared to control values
- IC50 (PCP receptor [1]): 74.6 nM
- IC50 (PCP receptor [2]): 41 ± 6 nM

Structure (SMILES): c1ccc2c(c1)C[C@H]1NC[C@@H]2c2ccccc21 [(+)-IDDC, (+)-10(R),5(S)-(iminomethano)-10,11-dihydro-5H-dibenzo[a,d]cycloheptene]
- cell survival compared to control (rat hippocampal cells): enhanced cell survival when compared to control values
- IC50 (PCP receptor [1]): 40 nM
- use-dependent blockage of NMDA-induced (+glycine) responses [3]: very similar to the use dependent blocking action exhibited by MK-801
- IC50 (PCP receptor [2]): 40 ± 5 nM
- protection against lesions caused by NMDA injection [4]: protect against the lesions caused by NMDA injection
